Data reported in ChEMBL document CHEMBL3425403, “De novo design of caseinolytic protein proteases inhibitors based on pharmacophore and 2D molecular fingerprints” (Bioorg Med Chem Lett, 2015).

Tested on: Staphylococcus aureus
Test: Inhibition of Staphylococcus aureus caseinolytic protein protease using fluorogenic substrate assessed as residual activity at 10 uM after 15 mins

Compound	Activity
CCCCCCCCCC[C@@H]1C(=O)O[C@H]1CCCCSCCCN(C)C	0%
C=CCCCCCCC[C@H]1C(=O)O[C@@H]1CCCCCCCCCCCNC(=O)OC(C)(C)C	105%
CCCCCCCCCCCC[C@H]1C(=O)O[C@@H]1CCc1ccccc1	95%
CCCCCCCCCC[C@H]1C(=O)O[C@@H]1CCCCS(=O)(=O)CCCN(C)C	13%
CCCCCCCCCC[C@@H]1C(=O)O[C@H]1CCSCCCN(C)C	1%
O=C1OC[C@@H]1CCc1ccccc1	108%
CCCCCCCCCC[C@H]1C(=O)O[C@@H]1CCCS(=O)(=O)CCC[N+](C)(C)C	7%
CCCCCCCCCC[C@H]1C(=O)O[C@@H]1CCCS(=O)(=O)CCCN(C)C	8%
CCCCCCCCCC[C@H]1C(=O)O[C@@H]1CCCCCS(=O)(=O)CCCN(C)C	10%
C=CCCCCCCCC[C@H]1OC(=O)[C@@H]1CCCCCCCCCNC(=O)OC(C)(C)C	95%
C#CCCCOC(=O)NCCCCCCCC=C	101%
CCCCCCCCCC[C@@H]1C(=O)O[C@H]1CCCCCS(=O)(=O)CCC[N+](C)(C)C	1%
C#CCCC[C@@H]1OC(=O)[C@H]1CCCCCCCCCCCC	95%
CCCCCCCCCC[C@@H]1C(=O)O[C@H]1CCCCS(=O)(=O)CCC[N+](C)(C)C	36%
CCCCCCCCCC[C@H]1C(=O)O[C@@H]1CCCCCS(=O)(=O)CCC[N+](C)(C)C	9%
C=CCCCCCCCCC(=O)OC(C)(C)C	103%

Compound	Activity
C=CCCCCCCCCC(=O)OC	96%
CCCCCCCCCC[C@@H]1C(=O)O[C@H]1CCCSCCCN(C)C	40%
CCCCCCCCCC[C@@H]1C(=O)O[C@H]1CCCS(=O)(=O)CCCN(C)C	0%
CCCCCCCCCC[C@@H]1C(=O)O[C@H]1CCCCCSCCCN(C)C	1%
C=CCCCCCCC[C@H]1C(=O)O[C@@H]1CCCCCNC(=O)c1ccc(N(C)C)cc1	30%
CCCCCCCCCC[C@@H]1C(=O)O[C@H]1CCCCS(=O)(=O)CCCN(C)C	0%
CCCCCCCCCC[C@H]1C(=O)O[C@@H]1CCCCS(=O)(=O)CCC[N+](C)(C)C	9%
CCCCCCCCCC[C@@H]1C(=O)O[C@H]1CCCS(=O)(=O)CCC[N+](C)(C)C	0%
CCCCCCCCCC[C@H]1C(=O)O[C@@H]1CCS(=O)(=O)CCCN(C)C	37%
C=CCCCCCCC[C@H]1C(=O)O[C@@H]1CCc1ccccc1	70%
O=C1OC[C@H]1CCc1ccccc1	108%
CCCCCCCCCC[C@H]1C(=O)O[C@@H]1CCSCCCN(C)C	11%
CCCCCCCCCC[C@@H]1C(=O)O[C@H]1CCCCCS(=O)(=O)CCCN(C)C	5%
C=CCCCCCCC[C@H]1C(=O)O[C@@H]1CCc1cccnc1	0%
CCCCCCCCCC[C@@H]1C(=O)O[C@H]1CCS(=O)(=O)CCCN(C)C	1%
C#CCCCOC(=O)NCCCCC	100%
